Source: article PMC11281459 (Viruses, 2024)
“And” between values parts separate entries of the source, which are not always exact repeats. Equal entries are not always repeated. Where two headings read alike, the source gives them in different places.

Experiments:
[1] = in vivo
[2] = target: hCoV-HKU1 3CLPro (Human coronavirus HKU1, UniProt P0C6X2); experiment: biochemical
[3] = tested on: SARS-CoV-2 USA-WA1/2020; set-up: species or system transgenic K18-hACE2 mice; settings: mouse, in vivo
[4] = target: hCoV-229E 3CLPro (Human coronavirus 229E, UniProt P0C6X1); experiment: biochemical
[5] = tested on: MERS-CoV; experiment: microbe, parasite or virus in culture; assay type: cell-based; settings: read-out: IC50 Mean ± SD
[6] = K18-hDPP4, mouse, in vivo
[7] = tested on: SARS-CoV-2 replicon; settings: read-out: EC50 Geomean
[8] = target: MERS-CoV 3CLPro (Middle East respiratory syndrome-related coronavirus, UniProt K9N7C7); experiment: biochemical
[9] = tested on: MERS-CoV EMC 2012; settings: mouse, in vivo
[10] = tested on: hCoV-OC43; experiment: microbe, parasite or virus in culture; assay type: cell-based; settings: Betacoronavirus 1, OC43, Huh-7, 120 h, read-out: EC50 Geomean
[11] = target: hCoV-OC43 3CLPro (Human coronavirus OC43, UniProt P0C6X6); experiment: biochemical
[12] = in vitro; settings: human
[13] = target: SARS-CoV-1 3CLPro (Severe acute respiratory syndrome coronavirus, UniProt P0C6X7); experiment: biochemical
[14] = tested on: hCoV-229E; experiment: microbe, parasite or virus in culture; assay type: cell-based; settings: Human coronavirus 229E, Huh-7, 120 h, read-out: EC50 Geomean
[15] = tested on: MERS-CoV; experiment: microbe, parasite or virus in culture; assay type: cell-based; settings: for EC90: read-out: EC90 Mean ± SD
[16] = in vivo; settings: female, CD-1, mouse; for AUC: po
[17] = tested on: SARS-CoV-2; experiment: microbe, parasite or virus in culture; assay type: cell-based
[18] = tested on: MERS-CoV replicon; experiment: microbe, parasite or virus in culture; assay type: cell-based; settings: Middle East respiratory syndrome-related coronavirus, A549, read-out: EC50 Geomean
[19] = in vitro; settings: African green monkey
[20] = target: hCoV-NL63 3CLPro (Human coronavirus NL63, UniProt P0C6X5); experiment: biochemical
[21] = in vivo; cited from earlier work
[22] = tested on: COVID-19; settings: human, in vivo; cited from earlier work
[23] = tested on: SARS-CoV-2 replicon; experiment: microbe, parasite or virus in culture; settings: Severe acute respiratory syndrome coronavirus 2, A549, read-out: EC50 Geomean
[24] = tested on: SARS-CoV-2 (Omicron EG.5.1) and MERS-CoV; assay type: cell-based
[25] = tested on: Vero E6+TMPRSS2 cells
[26] = Middle East respiratory syndrome-related coronavirus, VeroE6/TMPRSS2, 48 h
[27] = Middle East respiratory syndrome-related coronavirus, VeroE6/TMPRSS2, 72 h, read-out: EC50 Mean ± SD
[28] = Middle East respiratory syndrome-related coronavirus, read-out: EC50 Geomean
[29] = Middle East respiratory syndrome-related coronavirus
[30] = Severe acute respiratory syndrome coronavirus 2, read-out: EC50 Geomean

Chain of MERS-CoV 3CLPro (K9N7C7 3248-3553 limits assumed): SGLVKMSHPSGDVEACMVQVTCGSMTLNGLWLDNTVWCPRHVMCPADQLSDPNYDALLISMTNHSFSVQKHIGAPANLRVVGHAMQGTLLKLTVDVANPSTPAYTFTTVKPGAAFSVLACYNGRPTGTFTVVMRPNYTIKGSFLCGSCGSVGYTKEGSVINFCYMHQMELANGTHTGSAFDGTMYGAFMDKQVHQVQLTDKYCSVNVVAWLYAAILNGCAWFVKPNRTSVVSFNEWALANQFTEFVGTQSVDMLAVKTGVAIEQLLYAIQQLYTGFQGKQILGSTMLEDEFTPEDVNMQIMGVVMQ
Chain of hCoV-OC43 3CLPro (P0C6X6 3247-3549 limits assumed): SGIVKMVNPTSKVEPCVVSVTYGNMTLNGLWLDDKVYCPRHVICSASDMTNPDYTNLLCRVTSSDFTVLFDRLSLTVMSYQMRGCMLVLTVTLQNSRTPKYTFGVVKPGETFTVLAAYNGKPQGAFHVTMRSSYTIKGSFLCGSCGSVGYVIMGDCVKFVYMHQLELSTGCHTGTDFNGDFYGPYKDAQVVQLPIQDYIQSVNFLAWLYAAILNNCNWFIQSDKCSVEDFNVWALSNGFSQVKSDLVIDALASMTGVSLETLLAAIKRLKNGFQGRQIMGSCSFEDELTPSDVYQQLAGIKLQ
Chain of hCoV-229E 3CLPro (P0C6X1 2966-3267 limits assumed): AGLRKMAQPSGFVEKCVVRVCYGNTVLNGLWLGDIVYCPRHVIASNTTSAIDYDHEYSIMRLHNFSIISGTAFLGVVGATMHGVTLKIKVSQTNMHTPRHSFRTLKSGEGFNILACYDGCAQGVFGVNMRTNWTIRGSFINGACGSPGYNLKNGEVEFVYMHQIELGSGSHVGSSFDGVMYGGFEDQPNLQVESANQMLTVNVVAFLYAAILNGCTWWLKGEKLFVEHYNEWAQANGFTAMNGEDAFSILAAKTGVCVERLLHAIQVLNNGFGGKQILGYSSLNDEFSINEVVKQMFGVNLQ
Chain of hCoV-HKU1 3CLPro (P0C6X2 3335-3637 limits assumed): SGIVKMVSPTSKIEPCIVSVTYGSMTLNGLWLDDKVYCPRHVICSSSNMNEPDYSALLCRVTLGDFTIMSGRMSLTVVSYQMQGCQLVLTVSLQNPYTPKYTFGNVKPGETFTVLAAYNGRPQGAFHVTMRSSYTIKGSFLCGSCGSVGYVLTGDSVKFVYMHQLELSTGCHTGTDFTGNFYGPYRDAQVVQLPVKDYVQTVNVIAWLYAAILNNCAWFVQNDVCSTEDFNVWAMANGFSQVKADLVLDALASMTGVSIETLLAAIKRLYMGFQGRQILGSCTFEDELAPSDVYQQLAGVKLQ
Chain of hCoV-NL63 3CLPro (P0C6X5 2940-3242 limits assumed): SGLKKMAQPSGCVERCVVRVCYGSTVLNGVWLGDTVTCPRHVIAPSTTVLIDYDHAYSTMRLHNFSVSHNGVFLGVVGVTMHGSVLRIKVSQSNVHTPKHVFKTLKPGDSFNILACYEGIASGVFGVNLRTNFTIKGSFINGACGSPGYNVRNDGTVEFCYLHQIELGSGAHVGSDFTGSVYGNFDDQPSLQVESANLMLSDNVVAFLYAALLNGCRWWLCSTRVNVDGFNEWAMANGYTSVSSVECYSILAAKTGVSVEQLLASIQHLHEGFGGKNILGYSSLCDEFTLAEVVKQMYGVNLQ

For `CNC(=O)C(=O)[C@H](CCC(C)(F)F)NC(=O)[C@@H]1[C@H]2CCC[C@H]2CN1C(=O)[C@@H](NC(=O)OC)C(C)(C)C` [MK-7845], the “plasma concentrations versus PBA EC90” value ([1]; CD-1, mouse) was “above the PBA EC90”, the “total plasma concentrations versus replicon EC90 and PBA EC90” value ([1]; mouse) was “stayed above” and the IC50 [2] was 25.5 nM. For the same molecule, the body weight change [3] was “gained weight”, the “lung pathology (H&E, semi-quantitative)” value [3] was “significantly reduced” and the “lung pathology compared with vehicle group (H&E, semi-quantitative)” value [3] was “similar”. The “reduction in lung viral load (TCID50)” value [3] was “no significant reduction in viral load”, the “reduction in viral burden (TCID50) versus the nirmatrelvir group” value [3] was 3.4 log and 5 log and the “reduction in viral load by PFU assay compared to vehicle control” value [3] was “did not show a significant reduction in viral load”. For the same molecule, the “reduction of lung viral load (TCID50) compared to vehicle control” value [3] was ~ 5 logs and ~ 6 logs, the “reduction in viral burdens in the lungs” value ([3]; po) was > 6 log orders and the IC50 [4] was 307 nM. For the same molecule, the IC50 [5, 26] was 360 nM, the IC50 [5] was 362 ± 65 nM and the “plasma levels at troughs versus PBA EC90” value [6] was “above the PBA EC90”. The EC50 [7] was 15 nM, the IC50 [8] was 318 nM and the “PFU assay of lung homogenate” value [9] was “no plaques were formed”. For the same molecule, the “decrease in viral burden by PFU assay compared to vehicle-treated mice” value [9] was ~ 6 log, the “lung pathology (H&E, semi-quantitative)” value [9] was “notable reduction in lung pathology” and the “reduction in viral burden compared to vehicle-control group” value [9] was 3 log TCID50. The “reduction in viral load by PFU assay in comparison to nirmatrelvir” value [9] was 2.9 log and 3.6 log, the “viral genomic RNA in lung tissue by RT-PCR” value [9] was “did not observe a significant reduction” and the “reduction in viral burdens in the lungs” value ([9]; po) was > 6 log orders. The EC50 [10] was 370 nM, the IC50 [11] was 17 nM and the EC50 [12] was > 36000 nM. The “unbound mouse plasma fraction (fup)” value was 0.379, the IC50 [13] was 19.2 nM and the EC50 [14] was 3150 nM. For the same molecule, the EC50 [15, 27] was 460 nM, the EC50 [15, 28] was 390 nM and the EC90 [15, 29] was 541 ± 10 nM. It also gave an EC50 ([15]; read-out: EC50 Mean ± SD) of 463 ± 8 nM, a Vd ([16]; iv, 5 mg/kg) of 1.2 L/kg and a clearance ([16]; iv, 5 mg/kg) of 17.5 mL/min/kg. The half-life ([16]; iv, 5 mg/kg) was 47.4 min, the AUC ([16]; 100 mg/kg) was 49.1 µg·h/mL and the AUC ([16]; 250 mg/kg) was 146 µg·h/mL. For the same molecule, the AUC ([16]; 500 mg/kg) was 238 µg·h/mL, the AUC ([16]; 1000 mg/kg) was 306 µg·h/mL and the EC50 [17, 30] was 140 nM. For the same molecule, the EC50 [18] was 270 nM, the CC50 [19] was > 100000 nM and the IC50 [20] was 167 nM.
In the case of `CC(C)(C)[C@H](NC(=O)C(F)(F)F)C(=O)N1C[C@H]2[C@@H]([C@H]1C(=O)N[C@H](C#N)C[C@@H]1CCNC1=O)C2(C)C` [Nirmatrelvir, nirmatrelvir], the “increase of plasma levels by ritonavir” value [21] is given as “up to 20 fold”, the “lung pathology compared with vehicle group (H&E, semi-quantitative)” value [3] is given as “similar” and the “lung viral loads (TCID50), dose validation” value [3] is given as “significant reduction in the lung viral loads”. The “viral lung burden (TCID50 and PFU assay)” value [3] was ~ 6 logs, the IC50 [5, 26] was 117 ± 23 nM and the “reduction in hospitalization rates and deaths” value [22] was 80–90%. The “lung viral loads (TCID50), dose validation” value [9] was “significant reduction in the lung viral loads”, the EC50 [10] was 163 nM and the EC50 [23] was 10 nM. The EC50 [12] was > 36000 nM, the EC50 [14] was 473 nM and the EC50 [15, 27] was 88 ± 30 nM. It also gave an EC50 [15, 28] of 70 nM, an EC90 [15, 29] of 164 ± 10 nM and an EC50 [17, 30] of 70 nM. The EC50 ([17]; read-out: EC50 Mean ± SD) was 50 ± 10 nM, the EC50 [18] was 60 nM and the CC50 [19] was > 100000 nM.
In the case of `CCC(CC)COC(=O)[C@H](C)N[P@](=O)(OC[C@H]1O[C@@](C#N)(c2ccc3c(N)ncnn23)[C@H](O)[C@@H]1O)Oc1ccccc1` [Remdesivir, remdesivir], the IC50 [5, 26] is reported as 167 ± 33 nM, the “shift in activity in the presence versus the absence of the P-GP inhibitor” value [24] is reported as “significant shift in activity” and the EC50 [23] is reported as 270 nM. For the same molecule, the EC50 [15, 27] was 110 ± 18 nM, the EC50 [15, 28] was 150 nM and the EC90 [15, 29] was 240 ± 93 nM. The EC50 ([17]; Severe acute respiratory syndrome coronavirus 2, VeroE6/TMPRSS2, 72 h, read-out: EC50 Mean ± SD) was 149 ± 4 nM, the EC50 [17, 30] was 170 nM and the EC50 ([17]; read-out: EC50 Mean ± SD) was 110 nM and 163 nM and 94 nM and 155 nM and 90 nM and 141 nM and 150 nM. For the same molecule, the EC50 [18] was 780 nM and the CC50 [19] was 20000 nM.
With `COc1cc2c(cc1OC)CN(CCc1ccc(NC(=O)c3cccc4c(=O)c5cccc(OC)c5[nH]c34)cc1)CC2` [elacridar] the “effect of P-GP inhibitor on the infection” value [24] was “did not show an effect on the infection” and the “toxicity of P-GP inhibitor to cells” value [25] was “not toxic”.
